Experimental data reported in patent US20230029194A1, “MACROCYLIC SULFONYL DERIVATIVES MCL-1 INHIBITORS” (Janssen Pharmaceutica NV, priority 2019, published 2023).
pKi: −log10 of the molar value. Read-outs that look alike come from different tables or passages of the source.

How the values were obtained:
[1] = tested on: MOLP-8 human multiple myeloma cell line; experiment: MOLP8 Caspase-Glo 3/7 luminescent assay; assay type: cell-based; settings: MOLP8 cells, 2 hours incubation, 10% FBS assay media, 30 μM highest conc.; averaged over all runs on all batches
Excerpt: (§1) MCL-1 is a regulator of apoptosis and is highly over-expressed in tumor cells that escape cell death. The assay evaluates the cellular potency of small-molecule compounds targeting regulators of the apoptosis pathway, primarily MCL-1, Bfl-1, Bcl-2, and other proteins of the Bcl-2 family. Protein-protein inhibitors disrupting the interaction of anti-apoptotic regulators with BH3-domain proteins initiate apoptosis.
The Caspase-Glo® 3/7 Assay is a luminescent assay that measures caspase-3 and -7 activities in purified enzyme preparations or cultures of adherent or suspension cells. The assay provides a proluminescent caspase-3/7 substrate, which contains the tetrapeptide sequence DEVD. This substrate is cleaved to release aminoluciferin, a substrate of luciferase used in the production of light. Addition of the single Caspase-Glo® 3/7 Reagent in an “add-mix-measure” format results in cell lysis, followed by caspase cleavage of the substrate and generation of a “glow-type” luminescent signal. This assay uses the MOLP-8 human multiple myeloma cell line, which is sensitive to MCL-1 inhibition.
Cell cultures were maintained between 0.2 and 2.0×10^6 cells/mL. The cells were harvested by collection in 50 mL conical tubes. The cells were then pelleted at 500 g for 5 mins before removing supernatant and resuspension in fresh pre-warmed culture medium. The cells were counted and diluted as needed.
The assay reagent was prepared by transferring the buffer solution to the substrate vial and mixing. The solution may be stored for up to 1 week at 4° C. with negligible loss of signal.
Compounds were delivered in assay-ready plates (Proxiplate) and stored at −20° C. Assays always include 1 reference compound plate containing reference compounds. The plates were spotted with 40 nL of compounds (0.5% DMSO final in cells; serial dilution; 30 μM highest conc. 1/3 dilution, 10 doses, duplicates). […] The plates were then sealed and measured after 30 minutes.
The activity of a test compound was calculated as percent change in apoptosis induction as follows: […]

[2] = target: Myeloid Cell Leukemia 1 (Mcl-1) (Homo sapiens, UniProt Q07820); experiment: Terbium labeled Mcl-1 HTRF binding assay utilizing the Cy5-labeled BIM BH3 peptide
Myeloid Cell Leukemia 1 (Mcl-1), sequence (Q07820 whole entry): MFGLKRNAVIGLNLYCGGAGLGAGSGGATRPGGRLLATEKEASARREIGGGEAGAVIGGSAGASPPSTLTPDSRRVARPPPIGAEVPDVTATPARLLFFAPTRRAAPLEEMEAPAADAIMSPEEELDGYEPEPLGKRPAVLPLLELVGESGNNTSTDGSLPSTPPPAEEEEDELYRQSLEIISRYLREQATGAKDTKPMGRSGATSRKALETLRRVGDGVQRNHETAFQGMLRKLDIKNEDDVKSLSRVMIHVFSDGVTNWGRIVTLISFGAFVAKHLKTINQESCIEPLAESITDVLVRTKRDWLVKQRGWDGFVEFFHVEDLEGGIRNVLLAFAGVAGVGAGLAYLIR
Procedure: Terbium labeled Myeloid Cell Leukemia 1(Mcl-1) homogeneous time-resolved fluorescence (HTRF) binding assay utilizing the BIM BH3 peptide (H2N—(C/Cy5Mal) WIAQELRRIGDEFN-OH) as the binding partner for Mcl 1.
This assay evaluated inhibition of the BH3 domain: Mcl-1 interaction by measuring the displacement of Cy5-labeled BIM BH3 peptide (H2N—(C/Cy5Mal) WIAQELRRIGDEFN-OH) in the HTRF assay format.
The following assay and stock buffers were prepared for use in the assay: (a) Stock buffer: 10 mM Tris—HCl, pH=7.5+150 mM NaCl, filtered, sterilized, and stored at 4° C.; and (b) 1X assay buffer, where the following ingredients were added fresh to stock buffer: 2 mM dithiothreitol (DTT), 0.0025% Tween-20, 0.1 mg/mL bovine serum albumin (BSA). The 1X Tb—Mcl-1+Cy5 Bim peptide solution was prepared by diluting the protein stock solution using the 1X assay buffer (b) to 25 pM Tb—Mcl-1 and 8 nM Cy5 Bim peptide.
Using the Acoustic ECHO, 100 nL of 100x test compound(s) were dispensed into individual wells of a white 384-well Perkin Elmer Proxiplate, for a final compound concentration of 1x and final DMSO concentration of 1%. Inhibitor control and neutral control (NC, 100 nL of 100% DMSO) were stamped into columns 23 and 24 of assay plate, respectively. Into each well of the plate was then dispensed 10 μL of the 1X Tb—Mcl-1+Cy5 Bim peptide solution. The plate was centrifuged with a cover plate at 1000 rpm for 1 minute, then incubated for 60 minutes at room temperature with plates covered. The TR-FRET signal was read on an BMG PHERAStar FSX MicroPlate Reader at room temperature using the HTRF optic module (HTRF: excitation: 337 nm, light source: laser, emission A: 665 nm, emission B: 620 nm, integration start: 60 μs, integration time: 400 μs).
The BMG PHERAStar FSX MicroPlate Reader was used to measure fluorescence intensity at two emission wavelengths—665nm and 620 nm—and report relative fluorescence units (RFU) for both emissions, as well as a ratio of the emissions (665 nm/620 nm)*10,000. The RFU values were normalized to percent inhibition as follows:
% inhibition=(((NC−IC)−(compound−IC))/(NC−IC))*100
where IC (inhibitor control, low signal)=mean signal of 1X Tb—MCl-1+Cy5 Bim peptide+inhibitor control or 100% inhibition of Mcl-1; NC (neutral control, high signal)=mean signal 1X Tb—MCl-1+Cy5 Bim peptide with DMSO only or 0% inhibition An 11-point dose response curve was generated to determine IC50 values (using GenData) based on the following equation:
Y=Bottom+(Top−Bottom)/(1+10((logIC50−X)*HillSlope))
where Y=% inhibition in the presence of X inhibitor concentration; Top=100% inhibition derived from the IC (mean signal of Mcl-1+inhibitor control); Bottom=0% inhibition derived from the NC (mean signal of Mcl-1+DMSO); Hillslope=Hill coefficient; and IC50=concentration of compound with 50% inhibition in relation to top/neutral control (NC).
In this assay [L]=8 nM and Kd=10 nM

[3] = tested on: MOLP8 cells; experiment: MOLP8 CellEvent Caspase-3/7 Green live-cell IncuCyte apoptosis assay; assay type: cell-based, human; settings: averaged, number of independent runs in brackets
Procedure: as §1
Activation of the apoptotic pathway was measured using the CellEvent™ Caspase-3/7 Green ReadyProbes™ Reagent (Thermo Fisher C10423, C10723). This assay produces a green fluorescent stain in cells that enter the apoptosis pathway. CellEvent® Caspase-3/7 Green reagent is a four amino acid peptide (DEVD) conjugated to a nucleic acid-binding dye that is non-fluorescent when not bound to DNA. The CellEvent® Caspase-3/7 Green reagent is intrinsically non-fluorescent, as the DEVD peptide inhibits binding of the dye to DNA. Upon activation of caspase-3/7 in apoptotic cells, the DEVD peptide is cleaved and the free dye can bind DNA, generating a bright green fluorescence. The activation of Caspase-3 and Caspase-7 is downstream of inhibition of MCL-1 or other apoptosis inhibiting proteins in cell lines that are dependent on them.
The live-cell readout on the IncuCyte permits tracking over time of the Caspase activation. […] The IncuCyte readout also allows one to normalize for cell number, as the suspension cells are hard to distribute evenly.
Signals were measured every 2 h for a duration of 22 h. The ratio of the Caspase mask to the Confluence mask, per image, as raw data, was calculated and the kinetic trace for every well was exported to Genedata Screener for analysis.
In Genedata Screener values for 6 h, 12 h, and 22 h from the kinetic traces were extracted. The values were normalized against negative controls (untreated cells). A standard dose-response analysis was performed on the normalized data.
The following data was reported at each of the following three aforementioned time points: (a) The dose-response curve, (b) The qAC50 and qAC50 Mode, and (c) Max Activity.
Cells were maintained in culture medium containing 10% Heat Inactivated (HI) FBS, 2 mM L-Glutamine and 50 μg/mL Gentamycin phenol red free RPMI-1640. Cells were split at 0.4 million/mL twice a week.
On Day 1, plates containing individual wells with test compounds at 10 mM concentration, 150 nL per well. The final concentrations range from […] to 10 pM compound (and no compound control) and compounds were thawed at room temperature for 1 hour. 25 μl of prewarmed medium was added into each well by multidrop (column 1, 3-22, 24), followed by addition of DMSO control (0.6% DMSO) in column 2. The plate was sealed using Breathe-Easy®) sealing membrane and shaken for 30 min at room temperature to dissolve the test compound(s) in medium. The plate was then kept in the incubator for 1 hour at 37° C., 5% CO2.
MOLP8 cells in medium at 40000/25 μl (20000/50 μl final in assay) were prepared with CellEvent™ Caspase-3/7 Green Detection Reagent at 4 μM (2 μM final in assay). Once prepared, the cells were added to the test compound plate in an amount of 20000 and the plate was immediately placed in the IncuCyte and imaging started using following settings: 10X objective, 2 s exposure time in green channel, interval of 2 h, acquisition stopped after 22 h.
For analysis in IncuCyte, a Basic Analysis protocol was defined to calculate the “confluence” and “caspase” areas from the “Phase” and “green” images, respectively, as follows: (a) Confluence: Segmentation Adjustment 1, Hole Fill 0, Adjust Size −2, No filters (b) Caspase: Top-Hat segmentation, Radius 10, Threshold 0.3 GCU, Edge Split On with sensitivity 0, Hole Fill 0, Adjust Size 1, and filter on a minimum Area of 20 μm. The analyzer is trained on a sufficient number of positive and negative control wells, as well as compound treated wells, verifying that the “confluence” layer detects both live and dead (condensed) cells. […]

[4] = Ki=IC50/(1+[L]/Kd), [L]=8 nM, Kd=10 nM, first table (before recalibration of the equipment)
[5] = values obtained after recalibration of the equipment, averaged over several runs
[6] = 6 h, read-out: MOLP8 Caspase 3/7 AC50 at 6 h
[7] = 12 h, read-out: MOLP8 Caspase 3/7 AC50 at 12 h
[8] = 22 h, read-out: MOLP8 Caspase 3/7 AC50 at 22 h

Structure (SMILES): Cc1c2c(nn1C)CN(C)Cc1cc(n(C)n1)CS(=O)(=O)c1cc(c3ccccc3c1)OCCCc1c(C(=O)O)n(C)c3c-2c(Cl)ccc13 (single isomer, unassigned) [Compound 1]
- AC50 [1]: 3900 nM
- pKi [2, 4]: 9.21
- pKi [2, 5]: 9.25
- AC50 [3, 6]: 4470 nM
- AC50 [3, 7]: 5580 nM
- AC50 [3, 8]: 5750 nM

Structure (SMILES): Cc1c2c(nn1C)CN(C)Cc1cc(n(C)n1)CS(=O)(=O)c1cc(c3ccccc3c1)OCCCc1c(C(=O)O)n(C)c3c-2c(Cl)ccc13 (single isomer, unassigned) [Compound 2]
- pKi [2, 4]: 7.06
- pKi [2, 5]: 6.81
- AC50 [3, 6]: > 30200 nM
- AC50 [3, 7]: > 30200 nM
- AC50 [3, 8]: > 30200 nM

Structure (SMILES): Cc1c2c(nn1C)CS(=O)(=O)Cc1cc(n(C)n1)CSc1cc(c3ccccc3c1)OCCCc1c(C(=O)O)n(C)c3c-2c(Cl)ccc13 (single isomer, unassigned) [Compound 3]
- AC50 [1]: 400 nM
- pKi [2, 5]: 10.40
- AC50 [3, 6]: 680 nM
- AC50 [3, 7]: 620 nM
- AC50 [3, 8]: 540 nM

Structure (SMILES): Cc1c2c(nn1C)CS(=O)(=O)Cc1cc(n(C)n1)CSc1cc(c3ccccc3c1)OCCCc1c(C(=O)O)n(C)c3c-2c(Cl)ccc13 (single isomer, unassigned) [Compound 4]
- AC50 [1]: 14100 nM
- pKi [2, 4]: 8.77
- pKi [2, 5]: 8.52
- AC50 [3, 6]: 18600 nM
- AC50 [3, 7]: 20200 nM
- AC50 [3, 8]: 21600 nM
